Data taken from PubChem BioAssay AID179 (DTP/NCI, 2004).
Values joined by “and” are separate entries in the source; they are usually repeats but may differ in a detail not shown here. Equal values may be shown once. Active and inactive are the calls of the source.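 How the source made its calls: active means compounds giving half or more protection of infected cells from virus-caused growth loss, again on retest; inactive means the rest.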 Where a SMILES comes first, the peptide text is derived from it. [ ]: non-standard residue; d: D form. The star is where a group is joined. Phe(4-Cl) = N[CH](Cc1ccc(Cl)cc1)C(=O)O; 3Pal = N[CH](Cc1cccnc1)C(=O)O; Boc = CC(C)(C)OC(=O)*

Test system: CEM cells HIV-1 protection, formazan growth assay
Assay: NCI AIDS Antiviral Assay
Details: for IC50: measured here: growth of uninfected CEM cells
Method in brief: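 Category rules: moderately active means at least 50% protection on retest, and confirmed active means 100% protection reproducibly. The underlying data came from a formazan growth assay in HIV-1-infected CEM cells.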

Structure (SMILES) | EC50 [µM] | IC50 | outcome
CC(=O)NNc1nc(C)c(C(=O)/C=C/c2cccc([N+](=O)[O-])c2)s1 | 70.8 | 75.9 µM | –
Cc1ccc(S(=O)(=O)OCC23CCC(CC2)C2CC23)cc1 (stereo not given) | > 100 | 70.8 µM | –
O=C(COC(=O)c1cccc2c(=O)c3ccccc3[nH]c12)Nc1ccc(S(=O)(=O)Nc2ncccn2)cc1 | – | – | inactive
COc1ccc(N=Nc2c(N)nn3cc4c(nc23)CCCCC4)cc1 | > 200 | 34.7 µM | –
COc1cc(C(F)(F)F)nc(SC)n1 | > 200 | > 200 µM | –
COc1cc(OC)c2c(O)c3c(cc2c1)CC(C)(C)CC3=O | > 2 | 1.38 µM | –
CC(C)(C)C1=CC(=O)C(Cl)(C(C)(C)C)C(Cl)C1=O (stereo not given) | > 20 | 1.15 µM | –
CCCCCC(=O)Nc1n[nH]nc1C(N)=O | > 200 | > 200 µM | –
O=C1/C(=C/c2ccccc2)CCc2ccccc21 | > 200 | 11.5 µM | –
CCOC(=O)c1nc2ccccc2nc1NCc1cc(OC)c(OC)c(OC)c1 | > 200 | 27.5 µM | –
CCCCc1ccc(-n2sc3ncc(-c4ccccc4)cc3c2=O)cc1 | 95.5 | 117 µM | –
N#CC12C(=N)CCC1C1CC2C2C3C=CC(C3)C12 (stereo not given) | > 200 | > 200 µM | –
Cc1cn(C2OC(CO)C(CC(N)=O)C2O)c(=O)[nH]c1=O (stereo not given) | > 200 | > 200 µM | –
Cc1cc(O)c2c(c1)C(=O)C=C(Br)C2=O | > 100 | 1.58 µM | –
CC(=O)C1=CC=C/C1=N\Nc1ccccc1 | > 200 | 11 µM | –
COC(=O)c1[nH]c(=S)[nH]c(=O)c1-c1ccc(Cl)cc1 | 251 | 603 µM | –
C=CC1=C(C)C(/C=c2\[nH]/c(=C/c3[nH]c(CC4NC(=O)C(C)/C4=C\C)c(C)c3CCC(=O)O)c(CC(=O)O)c2C)=NC1=O (stereo not given) | > 2690 | > 2690 µM | –
CCC[C@H]1C(=O)N=C(N)N1C(=O)OCc1ccccc1 | > 200 | > 200 µM | –
CN(C)Cc1cc(N=Nc2cccc(Cl)c2)ccc1O | > 20 | 4.79 µM | –
O=C(O)c1cc(N=Nc2ccc(/C=C/c3ccc(N=Nc4ccc(O)c(C(=O)O)c4)cc3S(=O)(=O)O)c(S(=O)(=O)O)c2)ccc1O | 22.4 | 36.3 µM | –
Cc1ccc(S(=O)(=O)Nn2c3c(cc(C#N)c2=O)CCCCC3)cc1 | > 200 | > 200 µM | –
COc1ccc(OC)c(CSc2ccc(OC)c(OC)c2)c1 | > 200 | 85.1 µM | –

Structure (SMILES) | EC50 [µM] | IC50 | outcome
C/C=C/CP(=O)(c1ccccc1)c1ccccc1 | 0.0631 | > 200 µM | –
CCOC(=O)c1cnc(NC)n2nc(-c3ccccc3)nc12 | – | – | inactive
O=C(/C=C/c1ccc(OCC(=O)N2CCN(c3ccccc3)CC2)cc1)c1ccc(Cl)cc1 | > 29.5 | > 29.5 µM | –
CSc1ncc2c(C#N)c3ccccn3c(=O)c2n1 | > 200 | > 200 µM | –
N#Cc1cccc(/C=C/C(=O)c2ccccc2)c1 | > 22.4 | 4.07 µM | –
COc1cccc(C2NC(=S)N3C(c4cccc(OC)c4)NC(=S)N23)c1 (stereo not given) | – | – | inactive
C[C@]12CCC3[C@@H](C[C@H]4OC(=O)[C@@]35CCC(=O)C=C45)C1CCC2=O (stereo not given in full) | – | – | inactive
CCOC(=O)c1cc2c(OC(C)=O)ccc(OC(C)=O)c2s1 | > 2 | 0.0794 µM | –
CCOC(=O)c1cc2c3c(cc(OC)c2[nH]1)N(C(=O)OCC)CC3 | > 100 | > 100 µM | –
Cn1c(COC(=O)NC2CCCCC2)c(COC(=O)NC2CCCCC2)c2ccc3ccccc3c21 | > 174 | 2.82 µM | –
[N-]=[N+]=Nc1cc(=O)n2c3c(cccc13)CCC2 | – | – | inactive
O=S(=O)(c1ccccc1)C(Br)c1ccccc1 (stereo not given) | > 158 | > 158 µM | –
CN(C)P(=O)(OP(=O)(N(C)C)N(C)C)N(C)C | > 200 | > 200 µM | –
N#CC(C(N)=O)C(CC(=O)c1ccccc1)c1ccccc1 (stereo not given) | > 200 | 145 µM | –
Cc1cc2c(c3c1c1ccccc1n3C)C(=O)c1ccccc1C2=O | > 1.7 | > 1.7 µM | –
O=[N+]([O-])C(C(Cl)=C(Cl)Cl)=C(n1nnc2ccccc21)n1nnc2ccccc21 | > 200 | 26.9 µM | –
CCCC(=O)n1[nH]c(=O)n(-c2ccc(Cl)cc2)c1=O | > 200 | > 200 µM | –
Cc1ccc(=O)n(Cc2ccccc2)n1 | > 1260 | 912 µM | –
CN1C(=O)/C(=C2\SC(=O)N(CN3CCCCC3)C2=O)c2ccccc21 | > 200 | 27.5 µM | –
CCOC(=O)C(CC(C)C)NC(=O)C(Cc1ccccc1)NC(=O)CNC(=O)OC(C)(C)C (stereo not drawn) (Boc-Gly-Phe-Leu-OEt; configuration not given here) | > 200 | 8.51 µM | –
N#CC1=C(N)n2c(s/c(=C\c3ccc(Cl)cc3)c2=O)=C(c2nc3ccccc3[nH]2)C1c1ccc(Cl)cc1 (stereo not given) | > 5.01 | > 5.01 µM | –
O=S1CCCCS1 (stereo not given) | > 912 | 17.4 µM | –

Structure (SMILES) | EC50 [µM] | IC50 | outcome
CCOC(=O)C(=O)C=P(c1ccccc1)(c1ccccc1)c1ccccc1 | 18.6 | 35.5 µM | –
COc1cc(OC)c2c(=O)c(OC)c(-c3ccc4c(c3)OCO4)oc2c1 | > 200 | > 200 µM | –
Nc1nc(Cl)cc(NCCCCCCNc2cc(Cl)nc(N)n2)n1 | – | – | inactive
CC12CC3CC(C)(C1)CC(SCCN)(C3)C2 | > 200 | 38 µM | –
COC(=O)C1=C(C)N2CCSC2(C)C(C(=O)OC)C1c1cccc(Cl)c1 (stereo not given) | > 200 | 42.7 µM | –
COc1ccc(/C(C)=N/Nc2ccc([N+](=O)[O-])cc2[N+](=O)[O-])cc1 | – | – | inactive
O=C1Oc2ccccc2C(=O)/C1=C1\SSC(c2ccccc2)=C1c1ccccc1 | > 200 | > 200 µM | –
COc1ccccc1N=Nc1c(S(=O)(=O)O)cc2cc(NC(=O)Nc3ccc4c(O)c(N=Nc5c(N)ccc6cc(S(=O)(=O)O)ccc56)c(S(=O)(=O)O)cc4c3)ccc2c1O | – | – | active
CC(=O)NC(Cc1ccc(Cl)cc1)C(=O)NC(Cc1ccc(Cl)cc1)C(=O)NC(Cc1cccnc1)C(=O)NC(CO)C(=O)NC(Cc1ccc(O)cc1)C(=O)NC(CCCN=C(N)N)C(=O)NC(CC(C)C)C(=O)NC(CCCN=C(N)N)C(=O)N1CCCC1C(=O)NC(C)C(=O)O (stereo not given) (Ac-[Phe(4-Cl)][Phe(4-Cl)][3Pal]SYRLRPA-OH; configuration not given here) | > 17 | > 17 µM | –
Cn1c(=O)c(C(=O)NC(=O)NCCCCCOC(=O)CCCCCCCCCCC(=O)OCCCCCNC(=O)NC(=O)c2cn(Cc3ccccc3)c(=O)n(C)c2=O)cn(Cc2ccccc2)c1=O | > 7.41 | > 7.41 µM | –
CCOC(=O)c1c(N=P(c2ccccc2)(c2ccccc2)c2ccccc2)nnc(-c2ccccc2)c1-c1ccccc1 | > 100 | > 100 µM | –
O=Cc1ccc2c(c1)C(O)NC(=O)O2 (stereo not given) | 28.2 | 72.4 µM | –
Cc1ccc(C2=Nn3c(nc4sc(C)c(C)c4c3=O)SC2)cc1 | > 200 | > 200 µM | –
O=c1cc(-c2ccccc2)oc2c(-c3cc(Cl)cc4c(=O)cc(-c5ccccc5)oc34)cc(Cl)cc12 | > 200 | 38.9 µM | –
COc1nc2ccc(COc3ccc(C(=O)O)cc3)cc2nc1OC | > 200 | 132 µM | –
CCc1ccc(/C=C/C(=O)C2CN(CC)CCC2(O)/C=C/c2ccc(CC)cc2)cc1 (stereo not given) | > 200 | 4.37 µM | –
CCCCCCCCOC1N(C2CC(N=[N+]=[N-])C(CO)O2)C(=O)NC(=O)[C@]1(C)Br (stereo not given in full) | 0.427 | 12.6 µM | –
CCCCc1c2c(nc3c1CCCC3=O)C(=O)CCC2 | > 5.37 | > 5.37 µM | –
CCCCCCCC[N+]12CN3CN(CN(C3)C1)C2 | > 759 | 39.8 µM | –
N#C[C@@H](c1ccccn1)c1ncccc1[N+](=O)[O-] | > 200 | > 200 µM | –
C[Si](C)(C)CCCS(=O)(=O)O | > 200 | > 200 µM | –
C=C1C(=O)[C@@]23C(O)C[C@@H]4C(C)(C)CCC(O)C4(COC(C)=O)[C@@H]2CC[C@@H]1[C@H]3O (stereo not given in full) | > 631 | 0.372 µM | –

Structure (SMILES) | EC50 [µM] | IC50 | outcome
COc1ccccc1NC(=O)CC(=O)N1N=C(N(c2ccccc2)c2ccccc2)CC1c1ccccc1 (stereo not given) | – | > 100 µM | inactive
CCOC(=O)C1COc2cc(-c3cc(=O)c4ccccc4o3)ccc2O1 (stereo not given) | – | – | inactive
CCOC(=O)CCC(NC(=O)c1ccc(N=Cc2nc3ccccc3nc2-c2ccccc2)cc1)C(=O)OCC (stereo not given) | > 12.6 | > 12.6 µM | –
CC(C)OC(=S)SSC(=S)OC(C)C | > 200 | 6.92 µM | –
Cc1cc(=O)oc2cc(O)ccc12 | > 741 | 191 µM and > 200 µM | –
O=C1Cc2ccccc2N1C1c2ccccc2C=Cc2ccccc21 | > 200 | 21.4 µM | –
O=C1CN(C=C2C(=O)NC(=O)NC2=O)C(=S)N1 | > 200 | > 200 µM | –
CCCCNc1nc(NC2OCC(OC(C)=O)C(OC(C)=O)C2OC(C)=O)c(N=O)c(=O)n1C (stereo not given) | > 200 | > 200 µM | –
N#CC1C2C=CC(CCC2)C1C#N (stereo not given) | > 200 | > 200 µM | –
c1ccc2c(c1)SCCC2NC1=NCCO1 (stereo not given) | > 200 | 162 µM | –
COC(=O)C1=C(O)c2cc(OC)c(OC)c(OC)c2C(c2ccc3c(c2)OCO3)[C@@H]1C(=O)OC (stereo not given in full) | – | – | inactive
C/C(=N\NS(=O)(=O)c1ccc([N+](=O)[O-])cc1)c1ccc[n+]([O-])n1 | – | – | inactive
Nc1cc2c(cc1-n1cccc1)oc1ccccc12 | > 200 | 19.5 µM | –
Cc1cn(COCC[Se]c2ccccc2)c(=O)[nH]c1=O | 186 | > 200 µM | –
Cc1cc(O)c2c(=O)c(=O)c2c1 | > 1550 | 275 µM | –
Cc1c2ccn(O)cc2c(C)c2c1nc1ccccc12 | > 200 | 1.82 µM | –
Cc1csc(CCC(N)C(=O)O)n1 (stereo not given) | – | – | inactive
Cc1ccc(Nc2nc3c(s2)C(=O)c2ccccc2C3=O)c(C)c1 | > 30.2 | 15.8 µM | –
CCCc1cc(=O)oc2c3c(cc(OC(C)COC)c12)O[C@H](C)[C@@H](C)C3=O (stereo not given in full) | > 77.6 | 13.8 µM | –
NNC1=N/C(=C\c2ccco2)C(Cl)=N1 | > 200 | 38 µM | –
